According to the METLIN SMRT retention time set (Domingo-Almenara et al. 2019):

Test: gradient 5% acetonitrile 3 min, to 50% in 2 min, to 85% in 15 min, held 3 min, 100 µL/min
Details: column: Zorbax Extend-C18 2.1 x 50 mm; eluents: water / acetonitrile, 0.1% formic acid
Method in brief: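 The mobile phases were water and acetonitrile, each with 0.1% formic acid, pumped at 100 μL/min through a Zorbax Extend-C18 column (2.1 × 50 mm, 1.8 μm). Pure standards were injected as mixtures of ~100 molecules and detected by a quadrupole time-of-flight mass spectrometer in positive and negative ionization mode. Retention time came from computationally picked adduct peaks, each inspected by hand.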

| SMILES | RP-LC retention time [s] |
| --- | --- |
| CC(C)CC(NC(=O)c1ccc2c(c1)OCO2)C(=O)Nc1nc2ccccc2[nH]1 (centres undefined) | 710 |
| O=C(NCc1cccc(Br)c1)C1CCCN(c2cnc3nccnc3c2)C1 (centres undefined) | 739 |
| Cc1ccccc1NS(=O)(=O)c1cc2c(s1)CCN(C(=O)C1CC1)C2 | 822 |
| O=C(NCC1CC1)C1CCN(c2ncnc3c2oc2ccccc23)CC1 | 678 |
| CCN1C(=O)c2cccnc2Sc2cc(CNC(=O)c3ccco3)ccc21 | 701 |
| CCn1ccc2oc(C)c(C(=O)NCc3cccc(Br)c3)c2c1=O | 1060 |
| CCCCN(C)CCNC(=O)c1cc2cc3ccc(OC)cc3nc2o1 | 641 |
| O=C(O)c1cc2nc(-c3ccc(F)cc3)cc(C(F)(F)F)n2n1 | 880 |
| O=C(Nc1ccc(N2CCN(Cc3ccc(F)cc3)C2=O)nc1)c1ccsc1 | 787 |
| COc1cccc(Cn2nc3ccc(S(=O)(=O)N4CCC(C)CC4)cn3c2=O)c1 | 900 |
| CCCOc1ccc(C(=O)Nc2cnn(CC)c(=O)c2N2CCOCC2)cc1 | 954 |
| CCc1ccc(NC(=O)c2cn(-c3cc(-c4nc(CC)no4)ccn3)cn2)cc1 | 939 |
| Cc1noc(-c2ccc(=O)n(CC(=O)NC3CCc4ccccc43)c2)n1 (centres undefined) | 669 |
| O=C(Nc1ccccc1-c1cn2c(CN3CCNCC3)csc2n1)c1cnc2ccccc2n1 | 783 |
| CC1CCN(C(=O)c2cn(-c3cc(N4CCOCC4)ncn3)cn2)CC1 | 729 |
| CCOc1ccc(-n2c(=O)c3sccc3n(Cc3nc(-c4ccccc4OC)no3)c2=O)cc1 | 910 |
| COc1ccc(S(=O)(=O)N2CCCC(C(=O)NCc3ccncc3)C2)cc1OC (centres undefined) | 591 |
| Cc1n[nH]c(C)c1Sc1ccccc1[N+](=O)[O-] | 739 |
| Cc1ccc(NC(=O)Cn2cccc2-c2nnc(C3CCC3)o2)c(C)c1 | 963 |
| CCC(=O)Nc1ccc(C2(C(=O)NC(C)CC)CCCCC2)cc1 (centres undefined) | 845 |
| O=C(CCS(=O)(=O)c1ccc(Cl)cc1)Nc1nnc(Cc2ccc3c(c2)OCO3)o1 | 726 |
| O=C(C1CCN(S(=O)(=O)c2cc(-c3noc(C4CC4)n3)cs2)CC1)N1CCc2ccccc2C1 | 1020 |
| O=C(NCc1nc2ccccc2[nH]1)c1coc(NC(=O)c2cccs2)n1 | 556 |
| COc1ccc(CC(=O)NCC2(c3cccs3)CC2)cc1OC | 736 |
| Cn1c(CC2CCN(C(=O)COc3cccc(Cl)c3)C2)nc2cccnc21 (centres undefined) | 608 |
| Clc1cccc(-c2nc(-c3ccc(-n4ccnc4)nc3)no2)c1 | 815 |
| CC(C)NC(=O)C1CC(=O)N(c2ccc3c(c2)CCN3C(=O)C2CC2)C1 (centres undefined) | 657 |

| SMILES | RP-LC retention time [s] |
| --- | --- |
| c1cnn(-c2ccc(-c3noc(-c4ccc5c(c4)OCO5)n3)cn2)c1 | 1170 |
| Cc1ccc(NC(=O)Nc2ccc3nc(N4CCN(C)CC4)cc(C)c3c2)cc1C | 614 |
| COc1ccc(-c2nc(C)cc(C)c2CNC(=O)C(C)(C)C)cc1 | 613 |
| CC(C)n1c(=O)oc2cc(-c3noc(-c4ccc(F)cc4)n3)ccc21 | 1170 |
| CCOC(=O)c1sc(NC(=O)CN2CCN(c3ccccn3)CC2)nc1C | 605 |
| CCCCCNC(=O)C1CCCN(c2ncc(-c3ccc(F)cc3)cn2)C1 (centres undefined) | 1060 |
| O=C(NC1CCN(c2cc(-c3ccc(F)cc3)[nH]n2)C1)c1ccc2[nH]ccc2c1 (centres undefined) | 689 |
| CCc1cccc(C)c1Nc1c(-c2ccc(Cl)cc2)nc2cnccn12 | 1110 |
| CC1CCN(S(=O)(=O)c2ccc3nc(N4CCN(c5ccc(F)cc5)CC4)ccc3c2)CC1 | 1190 |
| O=C(Nc1cccs1)N1CCC(c2ccccc2)C1 (centres undefined) | 810 |
| O=C1CC(c2noc(-c3cc(F)ccc3F)n2)CN1c1ccc(Cl)cc1 (centres undefined) | 1020 |
| CCOc1ccc(-n2c(CN3CCN(C(=O)NC(C)CC)CC3)nc3cccnc32)cc1 (centres undefined) | 650 |
| CNc1nc(Nc2ccc(F)cc2C)nc2ccccc12 | 678 |
| O=C(COc1ccc(Cl)cc1)N1CCC(c2nnc(-c3ccc(F)cc3)o2)CC1 | 831 |
| O=C1NCCCCCN(C(=O)c2cnccn2)[C@H]2CCC[C@@H]12 | 620 |
| COc1ccc(OC)c(NC(=O)N2CCOc3ccc(Cl)cc32)c1 | 1010 |
| CCCCC(CC)C(=O)Nc1nc(-c2ccc(C(C)C)cc2)cs1 (centres undefined) | 1390 |
| CCc1nn2c(CNS(=O)(=O)Cc3cc(F)cc(F)c3)c(-c3ccccc3)nc2s1 | 1010 |
| Cn1nc(C(=O)N2CCCCC2)c2c1CCN(C(=O)Nc1ccccc1Br)C2 | 764 |
| O=c1c2cc3c(cc2nc(SCc2nc(-c4ccccc4)no2)n1-c1ccc(F)cc1)OCO3 | 1140 |
| CCCNC(=O)c1cnn(-c2ccc(-c3nc(C(C)C)no3)cn2)c1C | 907 |
| CCOC(=O)C1CCN(C(=O)C2CCCN(c3ccc(-c4ccc(C)c(C)c4)nn3)C2)CC1 (centres undefined) | 761 |
| Cc1cccc(S(=O)Cc2ccc(C(=O)NCCN3CCOCC3)o2)c1 (centres undefined) | 583 |
| Cc1cccc2nnc(N3CCCC(C(=O)NCCC(C)C)C3)n12 (centres undefined) | 586 |
| CCCCN(C)CCNC(=O)C1c2ccccc2C(=O)N2CCc3cc(OC)c(OC)cc3C12 (centres undefined) | 633 |
| c1ccc(-c2noc(-c3ccccc3OC3CCN(Cc4nccs4)C3)n2)cc1 (centres undefined) | 750 |
| Cn1c(=O)n(C2CCN(C(=O)Cc3ccsc3)CC2)c2ncncc21 | 630 |

More lines, now with the values ahead:

| RP-LC retention time [s] | SMILES |
| --- | --- |
| 894 | COC(=O)C1=CN(c2ccc(Cl)cc2)c2ccc(F)cc2S1(=O)=O |
| 834 | O=C(NC1CCCC1)N1CCC(OCc2ccccc2)C1 (centres undefined) |
| 832 | CC(NC(=O)CCCn1c(=O)c2cccn2c2ccc(Br)cc21)C(=O)N1CCCCC1 (centres undefined) |
| 749 | O=C(NCc1cccc(Cl)c1)C1CCCN(c2cnc3nccnc3c2)C1 (centres undefined) |
| 1300 | CCOc1ccc(-c2csc(Cc3nc(-c4ccc(OCC)cc4)no3)n2)cc1 |
| 766 | COC(=O)c1ncn2c1C(=O)N(Cc1ccc(C)cc1)C(C)(C(=O)NC1CCCC1)C2 (centres undefined) |
| 737 | O=C(NCCC1CCN(C(=O)Nc2cc(F)ccc2F)CC1)c1ccsc1 |
| 610 | O=C(Nc1ccc(NC(=O)c2ccncc2)cc1)c1ccncc1 |
| 647 | Cc1noc(CNC(=O)C2CCN(C(=O)Nc3ccccc3C(F)(F)F)CC2)n1 |
| 1040 | O=c1c2cc(-c3cccs3)nn2cnn1Cc1nc(-c2ccccc2Cl)no1 |
| 729 | CC(=O)N1CCC(C(=O)NCc2c(-c3ccccc3)nc3sc(C)nn23)CC1 |
| 634 | O=C(Nc1ccc(F)cc1)C1CCCN(c2ccc3cc(S(=O)(=O)N4CCCC4)ccc3n2)C1 (centres undefined) |
| 858 | CC1CCN(C(=O)c2cn(-c3cc(N4CCSCC4)ncn3)cn2)CC1 |
| 930 | Cc1ccc(CNC(=O)Cn2cnc3c(c(C)c(C)n3-c3ccc(Cl)cc3)c2=O)o1 |
| 912 | O=C(Oc1ccccc1)N1CCC(CNS(=O)(=O)/C=C/c2ccccc2)CC1 |
| 712 | O=C(Cc1cccs1)N1CCCCC1c1nncn1-c1ccccc1 (centres undefined) |
| 702 | COc1ccc(-c2cc(N3CCC(NC(=O)c4ccc(N(C)C)cc4)C3)n[nH]2)cc1 (centres undefined) |
| 555 | Cc1nc(C(=O)Nc2ccc(N3CCOCC3)cc2)c(C)n1C1CCN(C)CC1 |

| RP-LC retention time [s] | SMILES |
| --- | --- |
| 822 | CCCCN(C)C(=O)C1CCN(S(=O)(=O)c2ccc3c(c2)sc(=O)n3C)CC1 |
| 590 | COCCNc1ccc2nnc(C)n2n1 |
| 750 | O=C(c1ccco1)N1CCCn2nc(-c3cccs3)cc2C1 |
| 1130 | Cc1ccc(-c2nc(-c3ccc(-c4noc(CNC(=O)c5ccco5)n4)cc3)cs2)s1 |
| 584 | O=C1NC(c2ccccc2)(C(F)(F)F)SC2=NCCCN12 (centres undefined) |
| 666 | COc1ccc(NC(=O)C2CCCN(c3nnc4ccc(Cl)cn34)C2)cc1 (centres undefined) |
| 958 | Cc1ccc(S(=O)(=O)N2CCOCC2)cc1-c1nnc(-c2ccc(F)cc2)o1 |
| 880 | CCc1cccc(NC(=O)Cn2c(=O)c(CCC(=O)NCC(C)C)nc3ccccc32)c1 |
| 865 | CCN1C(=O)c2ccccc2Sc2cc(-c3noc(CNC(=O)c4ccco4)n3)ccc21 |
| 1040 | CC(C)(C)c1noc(-c2ccc(-n3cnc(C(=O)NC4CCCCC4)c3)nc2)n1 |
| 615 | Cc1oc(-c2ccc(Cl)cc2)nc1CN1CCC(C(=O)NCCCN(C)Cc2ccccc2)CC1 |
| 648 | CCCNc1cc(N2CCC(CCC(=O)Nc3ccc(OC)cc3OC)CC2)ncn1 |
| 917 | COCCNc1c(-c2cccc(F)c2)nc2sc(C(=O)NC3CCCC3)c(C)n12 |
| 1060 | CCc1ccc(OCc2nc(CCN(C)C(=O)Nc3cc(OC)ccc3OC)no2)cc1 |
| 888 | COc1ccc2[nH]c3c(c2c1)CCN(C(=O)CC(C)C)C31C(=O)N(C)c2ccccc21 (centres undefined) |
| 720 | Cc1ccc(NC(=O)NCC2CCOCC2)c(Cl)c1 |
| 970 | CCc1cc(C(=O)Nc2ccc(OC)cc2C)nc2ccnn12 |
